A short description of experiment [1]: cytotoxicity in HEK-293T cells, dose response, cytotoxicity control for BCR NF-kB inhibitor project, luminescence, B-cell screen hits (AID 489021).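 Further: HEK-293T cells carrying an NF-kB luciferase reporter; cells exposed to compound for about 14 hours before viability readout.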 It counts as functional, cell-based.
For a further experiment, the target named is T1, CAAX prenyl protease 2 (Saccharomyces cerevisiae S288c, UniProt Q03530).
T1 sequence (Q03530 whole entry): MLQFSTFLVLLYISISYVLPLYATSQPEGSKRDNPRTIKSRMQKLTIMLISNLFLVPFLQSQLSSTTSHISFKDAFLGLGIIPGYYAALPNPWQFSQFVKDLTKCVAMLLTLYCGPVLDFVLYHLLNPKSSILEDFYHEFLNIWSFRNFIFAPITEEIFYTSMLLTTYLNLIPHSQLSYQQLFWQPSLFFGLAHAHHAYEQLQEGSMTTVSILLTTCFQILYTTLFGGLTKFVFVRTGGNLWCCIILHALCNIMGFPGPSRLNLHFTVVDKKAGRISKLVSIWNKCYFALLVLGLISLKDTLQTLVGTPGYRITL
It counts as biochemical.

The nature of experiment [2]: inhibitors of firefly luciferase expression or activity, dose response, H4 neuroglioma cells, luminescence (AID 1990). It is filed as functional, cell-based.
Experiment [3] addresses T2, RNA-binding protein pos-1 (Caenorhabditis elegans, UniProt G5EF15).
T2 sequence (G5EF15 whole entry): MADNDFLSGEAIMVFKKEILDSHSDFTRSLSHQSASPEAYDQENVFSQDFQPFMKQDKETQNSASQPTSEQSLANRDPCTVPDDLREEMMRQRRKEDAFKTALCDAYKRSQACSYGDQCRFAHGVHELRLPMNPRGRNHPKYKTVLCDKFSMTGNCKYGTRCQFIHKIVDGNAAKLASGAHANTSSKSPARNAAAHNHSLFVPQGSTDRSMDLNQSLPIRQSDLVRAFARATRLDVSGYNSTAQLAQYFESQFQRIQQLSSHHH
The experiment can be described thus: inhibitors of POS-1/mex-3 RNA binding, dose response, biochemical, fluorescence polarization (AID 1964).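 Further: purified POS-1 fused to maltose binding protein made in E. coli; potency of compounds blocking POS-1 binding to fluorescent RNA.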

Experiment [4] is described as follows: Luminescence Cell-Based Dose Response HTS to Identify Inhibitors of 5'UTR Stem-Loop Driven Prion Protein mRNA Translation in H4 Neuroglioblastoma Cells. [Related pubchem assays: 1827 (Project Summary), 1813 (Primary HTS)]. It counts as functional.
Experiment [5] has as its target T3, Zinc finger protein mex-5 (Caenorhabditis elegans, UniProt Q9XUB2).
T3 sequence (Q9XUB2 whole entry): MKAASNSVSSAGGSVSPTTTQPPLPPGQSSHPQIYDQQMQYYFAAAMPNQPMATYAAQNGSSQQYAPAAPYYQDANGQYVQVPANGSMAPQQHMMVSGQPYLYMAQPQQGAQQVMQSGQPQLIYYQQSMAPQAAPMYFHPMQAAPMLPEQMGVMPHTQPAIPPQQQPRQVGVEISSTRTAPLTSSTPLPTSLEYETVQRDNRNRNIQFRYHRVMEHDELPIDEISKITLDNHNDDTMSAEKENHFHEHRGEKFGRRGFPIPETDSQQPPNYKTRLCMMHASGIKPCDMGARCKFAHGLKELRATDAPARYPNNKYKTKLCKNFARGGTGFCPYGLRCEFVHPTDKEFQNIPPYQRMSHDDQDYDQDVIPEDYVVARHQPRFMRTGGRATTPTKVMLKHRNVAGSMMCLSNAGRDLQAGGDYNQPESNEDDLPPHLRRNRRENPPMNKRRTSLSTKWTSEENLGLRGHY
The experiment can be described thus: MEX-5/TCR-2 RNA interaction inhibitors, dose response, biochemical, C. elegans, fluorescence polarization (AID 1960). A general note: Fluorescence polarisation rises when a labelled molecule tumbles more slowly, as on binding a larger partner.

A short description of experiment [6]: inhibitors of SNCA 5'UTR-driven reporter translation, confirmation, H4 neuroglioma cells, luminescence (AID 1988). It is filed as functional, cell-based.
Experiment [7] deals with Glyceraldehyde-3-phosphate dehydrogenase (Homo sapiens, UniProt P04406).
Experiment [8] concerns the target T4, Alkaline phosphatase, tissue-nonspecific isozyme (Homo sapiens, UniProt P05186).
T4 sequence (P05186 whole entry): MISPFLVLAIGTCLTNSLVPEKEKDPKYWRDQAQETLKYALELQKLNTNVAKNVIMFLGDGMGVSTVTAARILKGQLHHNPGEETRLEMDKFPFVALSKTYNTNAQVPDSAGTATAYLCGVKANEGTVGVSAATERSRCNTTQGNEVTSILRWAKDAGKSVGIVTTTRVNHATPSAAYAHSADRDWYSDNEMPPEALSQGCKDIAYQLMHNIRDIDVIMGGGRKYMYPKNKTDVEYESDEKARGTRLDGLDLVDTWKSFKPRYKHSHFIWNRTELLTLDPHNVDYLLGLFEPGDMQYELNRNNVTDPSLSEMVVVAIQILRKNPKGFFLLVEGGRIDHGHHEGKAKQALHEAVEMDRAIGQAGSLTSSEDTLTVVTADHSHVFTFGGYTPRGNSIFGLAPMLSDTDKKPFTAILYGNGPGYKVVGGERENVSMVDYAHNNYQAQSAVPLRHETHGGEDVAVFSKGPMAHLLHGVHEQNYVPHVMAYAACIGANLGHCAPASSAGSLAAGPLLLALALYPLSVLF
The experiment can be described thus: human TNAP enzyme inhibitors, SAR follow-up, biochemical, luminescent, dose response (AID 1056).

A further experiment relates to HeLa. The experiment can be described thus: HeLa cell cytotoxicity, dose response, cytotoxicity control, 24 h, cherry-picked samples (AID 504726).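 Further: potency for cytotoxicity as loss of luminescence signal.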 The settings on record: Homo sapiens. It counts as functional, cell-based.
The next experiment has as its target T5, ORF 73 (Human herpesvirus 8, UniProt O40947).
T5 sequence (O40947 whole entry): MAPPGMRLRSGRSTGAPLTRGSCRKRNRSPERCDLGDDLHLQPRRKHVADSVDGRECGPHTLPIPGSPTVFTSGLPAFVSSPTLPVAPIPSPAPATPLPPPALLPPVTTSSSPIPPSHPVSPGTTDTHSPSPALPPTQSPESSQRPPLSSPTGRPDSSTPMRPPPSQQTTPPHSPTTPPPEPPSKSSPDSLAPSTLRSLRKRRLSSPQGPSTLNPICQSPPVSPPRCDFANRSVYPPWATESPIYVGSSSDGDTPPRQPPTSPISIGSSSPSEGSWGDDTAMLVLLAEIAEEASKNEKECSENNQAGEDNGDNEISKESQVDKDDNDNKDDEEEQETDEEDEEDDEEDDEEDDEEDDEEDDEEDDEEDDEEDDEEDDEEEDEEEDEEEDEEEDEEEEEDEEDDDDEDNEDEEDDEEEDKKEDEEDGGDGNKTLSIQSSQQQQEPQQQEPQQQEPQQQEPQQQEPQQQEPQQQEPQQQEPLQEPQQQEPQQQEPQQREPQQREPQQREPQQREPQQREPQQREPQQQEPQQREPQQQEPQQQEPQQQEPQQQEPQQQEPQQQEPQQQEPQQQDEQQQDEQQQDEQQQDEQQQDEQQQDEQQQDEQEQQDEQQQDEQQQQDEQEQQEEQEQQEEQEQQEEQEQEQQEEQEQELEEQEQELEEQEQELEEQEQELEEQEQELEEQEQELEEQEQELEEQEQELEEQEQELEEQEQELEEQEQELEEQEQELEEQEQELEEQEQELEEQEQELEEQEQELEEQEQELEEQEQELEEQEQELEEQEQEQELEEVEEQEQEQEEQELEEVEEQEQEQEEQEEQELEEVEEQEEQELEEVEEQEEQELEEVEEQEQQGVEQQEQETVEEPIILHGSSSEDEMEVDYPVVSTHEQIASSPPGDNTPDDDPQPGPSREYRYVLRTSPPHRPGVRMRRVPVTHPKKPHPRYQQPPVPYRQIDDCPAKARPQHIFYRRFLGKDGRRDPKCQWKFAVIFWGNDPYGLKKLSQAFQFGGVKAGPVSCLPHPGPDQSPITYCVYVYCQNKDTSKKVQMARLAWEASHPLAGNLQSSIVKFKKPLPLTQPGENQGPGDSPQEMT
The experiment can be described thus: inhibitors of C-LANA binding to LBS DNA, dose response, biochemical, fluorescence polarization, cherry-picked samples (AID 504725).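 Further: fluorescence polarization of a labeled DNA duplex reporting LANA DNA binding; potency is for inhibitors that block LANA binding to the DNA.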 The arrangement: species or system Human gammaherpesvirus 8.

The target of a further experiment is Nonstructural protein 1 (Influenza A virus, UniProt Q194T2). It counts as functional, Influenza A virus (A/California/07/2009(H1N1)).
Experiment [9] deals with T6, Insulin-degrading enzyme (Homo sapiens, UniProt P14735).
T6 sequence (P14735 whole entry): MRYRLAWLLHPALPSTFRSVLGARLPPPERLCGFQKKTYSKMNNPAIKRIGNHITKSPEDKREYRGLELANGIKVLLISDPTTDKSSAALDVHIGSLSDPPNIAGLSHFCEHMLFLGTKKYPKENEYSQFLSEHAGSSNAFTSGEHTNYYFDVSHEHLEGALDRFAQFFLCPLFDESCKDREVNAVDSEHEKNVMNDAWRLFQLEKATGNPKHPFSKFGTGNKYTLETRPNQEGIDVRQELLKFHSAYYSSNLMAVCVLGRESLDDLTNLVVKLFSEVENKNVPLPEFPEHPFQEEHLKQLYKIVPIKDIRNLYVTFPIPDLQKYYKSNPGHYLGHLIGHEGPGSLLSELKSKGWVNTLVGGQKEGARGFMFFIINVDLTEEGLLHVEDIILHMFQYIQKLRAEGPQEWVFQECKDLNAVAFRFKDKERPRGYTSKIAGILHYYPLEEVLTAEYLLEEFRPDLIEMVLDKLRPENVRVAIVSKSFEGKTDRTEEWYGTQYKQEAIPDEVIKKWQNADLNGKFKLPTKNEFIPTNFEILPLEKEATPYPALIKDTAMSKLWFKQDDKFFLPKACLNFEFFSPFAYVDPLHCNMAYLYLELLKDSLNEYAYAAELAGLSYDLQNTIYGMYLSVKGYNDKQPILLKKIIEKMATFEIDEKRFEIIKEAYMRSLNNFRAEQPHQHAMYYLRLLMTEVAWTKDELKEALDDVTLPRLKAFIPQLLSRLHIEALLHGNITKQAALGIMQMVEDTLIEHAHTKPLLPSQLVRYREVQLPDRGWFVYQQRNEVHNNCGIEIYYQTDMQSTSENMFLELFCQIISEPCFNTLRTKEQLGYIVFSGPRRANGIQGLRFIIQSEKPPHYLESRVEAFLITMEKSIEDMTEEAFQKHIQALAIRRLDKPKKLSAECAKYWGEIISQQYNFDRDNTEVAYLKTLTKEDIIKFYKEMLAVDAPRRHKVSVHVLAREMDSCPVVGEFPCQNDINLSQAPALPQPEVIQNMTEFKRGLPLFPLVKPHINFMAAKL
The experiment can be described thus: activators of recombinant IDE enzyme, dose response, counter-screen for IDE activator project, biochemical, fluorescence polarization (AID 588681).

Experiment [10] concerns the target T6, Insulin-degrading enzyme. The experiment can be described thus: activators of endogenous IDE in HEK cells, dose response, cell-based, fluorescence polarization (AID 588439). It is filed as functional.
The subject of experiment [11] is HEK293. The experiment can be described thus: HEK cell cytotoxicity by LDH release, dose response, cytotoxicity control for IDE activator project, fluorescence, HEK cells (AID 588440).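 Further: cytotoxicity by LDH release measuring loss of membrane integrity.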 The settings on record: Homo sapiens. It counts as functional, cell-based. (In general: LDH in the medium is a marker of cell lysis.)
Experiment [12] relates to HEK293. The experiment can be described thus: optical interference in Abeta FP readout, dose response, artefact control for IDE activator project, biochemical, fluorescence polarization (AID 588442). Conditions: Homo sapiens. It is filed as functional, cell-based.
Experiment [13] can be described thus: HeLa cell cytotoxicity, dose response, cytotoxicity control for MgcRacGAP inhibitor project (AID 624300). It counts as functional.
For experiment [14], the target named is T7, Rac GTPase-activating protein 1 (Homo sapiens, UniProt Q9H0H5).
T7 sequence (Q9H0H5 whole entry): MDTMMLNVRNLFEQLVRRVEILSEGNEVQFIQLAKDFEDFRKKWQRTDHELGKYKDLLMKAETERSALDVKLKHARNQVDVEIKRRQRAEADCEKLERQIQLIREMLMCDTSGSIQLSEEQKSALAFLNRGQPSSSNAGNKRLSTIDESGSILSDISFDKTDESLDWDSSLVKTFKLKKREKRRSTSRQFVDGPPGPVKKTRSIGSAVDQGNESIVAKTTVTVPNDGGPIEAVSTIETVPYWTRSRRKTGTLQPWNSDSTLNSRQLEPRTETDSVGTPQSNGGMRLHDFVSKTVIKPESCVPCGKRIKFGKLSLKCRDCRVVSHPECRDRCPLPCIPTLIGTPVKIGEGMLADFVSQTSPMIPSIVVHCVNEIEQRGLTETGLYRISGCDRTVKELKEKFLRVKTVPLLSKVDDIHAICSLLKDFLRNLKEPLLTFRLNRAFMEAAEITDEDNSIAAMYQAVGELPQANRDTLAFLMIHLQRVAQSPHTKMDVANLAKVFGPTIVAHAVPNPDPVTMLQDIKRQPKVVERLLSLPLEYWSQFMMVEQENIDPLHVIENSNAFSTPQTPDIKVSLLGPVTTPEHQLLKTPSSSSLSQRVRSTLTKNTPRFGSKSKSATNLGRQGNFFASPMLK
The experiment can be described thus: MgcRacGAP GTPase-activating activity inhibitors, confirmation, biochemical, ADP Hunter fluorescence, primary and confirmatory (AID 624330). It is filed as functional.

Active and inactive are the calls of the source. Some results are limits rather than exact numbers.

Chain of Nonstructural protein 1 (Q194T2 whole entry): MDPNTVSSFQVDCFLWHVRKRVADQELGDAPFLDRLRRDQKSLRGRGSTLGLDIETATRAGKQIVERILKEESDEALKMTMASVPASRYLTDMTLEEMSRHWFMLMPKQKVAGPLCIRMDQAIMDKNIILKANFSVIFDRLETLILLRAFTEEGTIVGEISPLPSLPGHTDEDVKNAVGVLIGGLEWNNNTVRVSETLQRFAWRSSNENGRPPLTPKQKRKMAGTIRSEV
Chain of Glyceraldehyde-3-phosphate dehydrogenase (P04406 whole entry): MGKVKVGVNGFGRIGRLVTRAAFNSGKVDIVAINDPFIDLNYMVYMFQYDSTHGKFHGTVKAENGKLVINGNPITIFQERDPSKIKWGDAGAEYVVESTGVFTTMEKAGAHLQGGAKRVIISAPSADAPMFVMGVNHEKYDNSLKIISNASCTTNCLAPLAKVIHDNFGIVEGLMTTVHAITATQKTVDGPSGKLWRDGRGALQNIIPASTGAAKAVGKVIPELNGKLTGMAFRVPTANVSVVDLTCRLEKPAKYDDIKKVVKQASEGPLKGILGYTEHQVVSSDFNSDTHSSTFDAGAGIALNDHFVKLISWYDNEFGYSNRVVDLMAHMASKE

As usually defined, the IC50 is the concentration that inhibits the measured activity by half. In the case of `C=CCOc1ccc(NC(=O)C(=O)NCCCn2ccnc2)cc1`, in [1], the IC50 was > 80 µM (inactive).

In general, AC50 refers to the midpoint of the concentration-response curve, whichever way the signal moves. On to `CCCn1c(O)c(N=NC(=O)CNC(=O)Cc2ccc(OC)cc2)c2ccccc21`, for which the AC50 at CAAX prenyl protease 2 is > 100 µM (inactive).

In general, EC50 refers to the midpoint of the concentration-response curve. Take `COc1cccc(/C=C2\SC(=S)N(CCCC(=O)NC3=NCCS3)C2=O)c1`: the concentration giving a half-maximal response (EC50) in experiment [2] was 11.8 µM (active); in experiment [3], > 300 µM (not active); in experiment [4], 14 µM (active); in [5] it was > 300 µM (not active); in experiment [6] it was 13.2 µM (active). The IC50 in experiment [1] was > 80 µM (inactive).

For `Cc1c(C(=O)O)nnn1-c1ccc(F)cc1`, the IC50 is > 100 µM (not active) in [7] and > 100 µM (inactive) in experiment [8].

As usually defined, the CC50 is the concentration at which the toxic effect on the cells reaches its halfway point. As for `Nc1ccc2c3[nH]c4cc(N)ccc4cc-3nc2c1`, the AC50 is 7.72 µM (active) in the experiment on HeLa and 0.758 µM (active) at ORF 73. In addition, the IC50 on Nonstructural protein 1 is 21.1 µM (active); with HEK293 [11] it was > 89.2 µM (inactive); in experiment [14], 44.7 µM (active). For the same molecule, the EC50 at Insulin-degrading enzyme [9], at Insulin-degrading enzyme [10] and with HEK293 [12] was > 54.7 µM (inactive) in each case. In experiment [13], the CC50 was 8.81 µM (active).

Values taken from ChEMBL document CHEMBL1201862, “PubChem BioAssay data set” (2004).
